From patent publication US11530229B2, “Cyano cyclobutyl compounds for CBL-B inhibition and uses thereof” (Nurix Therapeutics, Inc., priority 2019, dated 2022)
Read-outs that look alike come from different tables or passages of the source.

How the values were obtained:
Cbl-b = Cbl-b (Homo sapiens (Human), UniProt Q13191); test: Cbl-b displacement assay (Cbl-b inhibition assay), Biological Example 1; type: binding
Experimental: Candidate compounds were evaluated for their ability to bind and inhibit Cbl-b, an E3 ubiquitin-protein ligase, as evidenced by their ability to displace a fluorophore-labeled probe (Example 59) bound to Cbl-b.
The ability of candidate compounds to displace a known inhibitor and thereby inhibit Cbl-b activity was measured by monitoring the interaction of Cbl-b with a fluorophore-labeled probe in the presence of the candidate compound. A truncated variant of Cbl-b (UniProt number Q13191; SEQ ID NO:1) containing an Avitag at its N-terminus was co-expressed with BirA biotin ligase and purified using a standard protocol (see Dou et al., Nature Structural and Molecular Biology, 8: 982-987, 2013; Avidity LLC).
Cbl-b Amino Acid Residues 36-427:
Fluorescently-labeled inhibitor probe was synthesized and tagged with BODIPY FL (Example 59). Cbl-b displacement assays were performed in a 384-well plate at room temperature in a 10 μL reaction volume by pre-incubating 0.5 nM Cbl-b or 0.125 nM Cbl-b (final concentration, indicated as “High” and “Low”, respectively) in an assay buffer containing 20 mM HEPES pH 7.5, 150 mM NaCl, 0.01% Triton X-100, 0.01% BSA and 0.5 mM TCEP in the presence of a candidate compound in 1% DMSO (final concentration) for 1 hour. After incubation in the presence of the candidate compound, the plate was incubated for an additional 1 hour in the presence of an approximate EC40 binding saturation consisting of 150 nM fluorescently-labeled inhibitor probe and 2 nM Streptavidin-Terbium (Cisbio) (final concentrations). Following the 1 hour incubation, the plates were read for TR-FRET signal at […] using an Envision plate reader (Perkin Elmer).

[1] = test system: primary human total T-cells; test: T-cell activation, IL-2 secretion, Biological Example 2; type: cell-based; details: 48 hours, fold change over baseline; for fold induction at 0.3 µM: 0.3 μM inhibitor; for fold induction at 1 µM: 1 μM inhibitor; for fold induction at 3 µM: 3 μM inhibitor
[2] = test system: primary human total T-cells; test: T-cell activation, CD25 surface staining, Biological Example 2; type: cell-based; details: 48 hours, fold change over baseline; for fold induction at 0.3 µM: 0.3 μM inhibitor; for fold induction at 1 µM: 1 μM inhibitor; for fold induction at 3 µM: 3 μM inhibitor
[3] = 0.125 nM Cbl-b final concentration (Low), read-out: Cbl-b activity IC50 (Low)
[4] = anti-CD3 and anti-CD28 co-stimulation
[5] = anti-CD3 and anti-CD28 co-stimulation, read-out: IL-2 secretion CD3/CD28 1 μM
[6] = anti-CD3 stimulation alone, read-out: IL-2 secretion CD3 1 μM
[7] = anti-CD3 and anti-CD28 co-stimulation, read-out: CD25 staining CD3/CD28 1 μM
[8] = anti-CD3 stimulation alone, read-out: CD25 staining CD3 1 μM
[9] = read-out: IC50 values in the Cbl-b inhibition assay of Biological Example 1

Chain of Cbl-b (Q13191 36-427): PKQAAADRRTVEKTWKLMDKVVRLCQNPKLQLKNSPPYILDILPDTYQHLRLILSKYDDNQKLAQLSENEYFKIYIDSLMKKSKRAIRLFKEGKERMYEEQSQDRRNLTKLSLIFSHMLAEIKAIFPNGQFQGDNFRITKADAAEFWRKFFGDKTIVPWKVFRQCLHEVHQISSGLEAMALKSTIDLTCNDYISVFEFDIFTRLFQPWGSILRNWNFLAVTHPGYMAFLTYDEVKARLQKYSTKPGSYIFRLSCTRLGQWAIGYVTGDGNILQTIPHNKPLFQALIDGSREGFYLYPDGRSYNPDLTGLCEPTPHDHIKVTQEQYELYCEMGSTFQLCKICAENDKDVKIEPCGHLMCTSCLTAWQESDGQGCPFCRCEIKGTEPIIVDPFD

Row | Compound | IC50 (Cbl-b; [3]) [nM] | fold induction at 0.3 µM [1, 4] | fold induction at 1 µM [1, 5] | fold induction at 1 µM [1, 6] | fold induction at 3 µM ([1]; anti-CD3 stimulation alone) | fold induction at 0.3 µM [2, 4] | fold induction at 1 µM [2, 7] | fold induction at 1 µM [2, 8] | fold induction at 3 µM ([2]; anti-CD3 stimulation alone) | IC50 (Cbl-b; [9]) [nM]
1 | Cn1cnnc1C[C@]1(c2cccc(N3Cc4c(cc(CN5CCC[C@H](C(F)(F)F)C5)cc4C(F)(F)F)C3=O)c2)C[C@H](C#N)C1 [Compound 14, (1R,3r)-3-((4-methyl-4H-1,2,4-triazol-3-yl)methyl)-3-(3-(1-oxo-4-(trifluoromethyl)-6-(((S)-3-(trifluoromethyl)piperidin-1-yl)methyl)isoindolin-2-yl)phenyl)cyclobutane-1-carbonitrile] | 2 to 5 | 15 to 20 | 15 to 20 | 0.4 to 0.85 | 0.4 to 0.85 | ≤ 1.24 | ≤ 1.24 | ≤ 1 | ≤ 1 | 
2 | C[C@@H]1CN(Cc2cc3c(c(C(F)(F)F)c2)CN(c2cccc([C@]4(Cc5nncn5C)C[C@@H](C#N)C4)c2)C3=O)C[C@H](C)O1 [Compound 15, (1R,3r)-3-(3-(6-(((2R,6S)-2,6-dimethylmorpholino)methyl)-1-oxo-4-(trifluoromethyl)isoindolin-2-yl)phenyl)-3-((4-methyl-4H-1,2,4-triazol-3-yl)methyl)cyclobutane-1-carbonitrile] | 2 to 5 | ≤ 15 | 15 to 20 | 0.4 to 0.85 | > 0.85 | 1.24 to 1.39 | 1.24 to 1.39 | 1 to 1.15 | 1 to 1.15 | 
3 | Cn1cnnc1C[C@]1(c2cccc(N3Cc4c(cc(CN5CCO[C@H](C(F)(F)F)C5)cc4C(F)(F)F)C3=O)c2)C[C@H](C#N)C1 [Compound 16, (1S,3r)-3-((4-methyl-4H-1,2,4-triazol-3-yl)methyl)-3-(3-(1-oxo-4-(trifluoromethyl)-6-(((S)-2-(trifluoromethyl)morpholino)methyl)isoindolin-2-yl)phenyl)cyclobutane-1-carbonitrile] | 1 to 2 | ≤ 15 | 15 to 20 | 0.4 to 0.85 | > 0.85 | 1.24 to 1.39 | 1.24 to 1.39 | 1 to 1.15 | ≤ 1 | 1 to 2
4 | Cn1cnnc1C[C@]1(c2cccc(N3Cc4c(cc(CN5CCCC(F)(F)CC5)cc4C(F)(F)F)C3=O)c2)C[C@H](C#N)C1 [Compound 17, (1r,3r)-3-(3-(6-((4,4-difluoroazepan-1-yl)methyl)-1-oxo-4-(trifluoromethyl)isoindolin-2-yl)phenyl)-3-((4-methyl-4H-1,2,4-triazol-3-yl)methyl)cyclobutane-1-carbonitrile] | 1 to 2 | 15 to 20 | > 20 | 0.4 to 0.85 | 0.4 to 0.85 | 1.24 to 1.39 | 1.24 to 1.39 | 1 to 1.15 | ≤ 1 | 1 to 2
5 | C[C@@H]1C[C@H](C)CN(Cc2cc3c(c(C(F)(F)F)c2)CN(c2cccc([C@]4(Cc5nncn5C)C[C@@H](C#N)C4)c2)C3=O)C1 [Compound 18, (1R,3r)-3-(3-(6-(((3S,5R)-3,5-dimethylpiperidin-1-yl)methyl)-1-oxo-4-(trifluoromethyl)isoindolin-2-yl)phenyl)-3-((4-methyl-4H-1,2,4-triazol-3-yl)methyl)cyclobutane-1-carbonitrile] | < 1 | > 20 | > 20 | > 0.85 | > 0.85 | 1.24 to 1.39 | 1.24 to 1.39 | 1 to 1.15 | ≤ 1 | 
6 | CN(Cc1cc2c(c(C(F)(F)F)c1)CN(c1cccc([C@]3(Cc4nncn4C)C[C@@H](C#N)C3)c1)C2=O)C1CC(F)(F)C1 [Compound 22, (1r,3r)-3-(3-(6-(((3,3-difluorocyclobutyl)(methyl)amino)methyl)-1-oxo-4-(trifluoromethyl)isoindolin-2-yl)phenyl)-3-((4-methyl-4H-1,2,4-triazol-3-yl)methyl)cyclobutane-1-carbonitrile] | 2 to 5 | ≤ 15 | ≤ 15 | 0.4 to 0.85 | 0.4 to 0.85 | > 1.39 | > 1.39 | 1 to 1.15 | 1 to 1.15 | 2 to 5
7 | Cn1cnnc1C[C@]1(c2cccc(N3Cc4c(cc(CNC5CC6(C5)CC6(F)F)cc4C(F)(F)F)C3=O)c2)C[C@H](C#N)C1 (stereo partly drawn) [Compound 23, (1r,3r)-3-(3-(6-(((1,1-difluorospiro[2.3]hexan-5-yl)amino)methyl)-1-oxo-4-(trifluoromethyl)isoindolin-2-yl)phenyl)-3-((4-methyl-4H-1,2,4-triazol-3-yl)methyl)cyclobutane-1-carbonitrile] | 1 to 2 | 15 to 20 | 15 to 20 | 0.4 to 0.85 | 0.4 to 0.85 | 1.24 to 1.39 | 1.24 to 1.39 | 1 to 1.15 | 1 to 1.15 | 1 to 2
8 | Cn1cnnc1C[C@]1(c2cccc(N3Cc4c(cc(CNC5COC(C)(C)C5)cc4C(F)(F)F)C3=O)c2)C[C@H](C#N)C1 (stereo partly drawn) [Compound 24, (1r,3r)-3-(3-(6-(((5,5-dimethyltetrahydrofuran-3-yl)amino)methyl)-1-oxo-4-(trifluoromethyl)isoindolin-2-yl)phenyl)-3-((4-methyl-4H-1,2,4-triazol-3-yl)methyl)cyclobutane-1-carbonitrile] | 2 to 5 | ≤ 15 | 15 to 20 | 0.4 to 0.85 | 0.4 to 0.85 | 1.24 to 1.39 | 1.24 to 1.39 | > 1.15 | 1 to 1.15 | 2 to 5
9 | CC1CCCCN(Cc2cc3c(c(C(F)(F)F)c2)CN(c2cccc([C@]4(Cc5nncn5C)C[C@@H](C#N)C4)c2)C3=O)C1 (stereo partly drawn) [Compound 25, (1r,3r)-3-((4-methyl-4H-1,2,4-triazol-3-yl)methyl)-3-(3-(6-((3-methylazepan-1-yl)methyl)-1-oxo-4-(trifluoromethyl)isoindolin-2-yl)phenyl)cyclobutane-1-carbonitrile] | < 1 | > 20 | > 20 | > 0.85 | > 0.85 | 1.24 to 1.39 | 1.24 to 1.39 | 1 to 1.15 | ≤ 1 | < 1
10 | Cn1cnnc1C[C@]1(c2cccc(N3Cc4c(cc(CN5CCCCC(C)(F)C5)cc4C(F)(F)F)C3=O)c2)C[C@H](C#N)C1 (stereo partly drawn) [Compound 26, (1r,3r)-3-(3-(6-((3-fluoro-3-methylazepan-1-yl)methyl)-1-oxo-4-(trifluoromethyl)isoindolin-2-yl)phenyl)-3-((4-methyl-4H-1,2,4-triazol-3-yl)methyl)cyclobutane-1-carbonitrile] | 2 to 5 | ≤ 15 | ≤ 15 | < 0.4 | < 0.4 | ≤ 1.24 | ≤ 1.24 | ≤ 1 | ≤ 1 | 
